Assay results taken from publication PMC7297817, “Pharmacological Characterization of a Betaine/GABA Transporter 1 (BGT1) Inhibitor Displaying an Unusual Biphasic Inhibition Profile and Anti-seizure Effects” (Neurochemical Research, 2020).

Columns and labels:
5-HT2B = target: T1, 5-HT2B (Homo sapiens, UniProt P41595); experiment: NIMH PDSP radioligand binding, 5-HT2B; conditions: radioligand [3H]LSD
T1 construct: NIMH PDSP (screening service)

M5 = target: T2, M5 (Homo sapiens, UniProt P08912); experiment: NIMH PDSP radioligand binding, M5
T2 construct: purchased NIMH Psychoactive Drug Screening Program (PDSP)
T2 sequence (P08912 whole entry): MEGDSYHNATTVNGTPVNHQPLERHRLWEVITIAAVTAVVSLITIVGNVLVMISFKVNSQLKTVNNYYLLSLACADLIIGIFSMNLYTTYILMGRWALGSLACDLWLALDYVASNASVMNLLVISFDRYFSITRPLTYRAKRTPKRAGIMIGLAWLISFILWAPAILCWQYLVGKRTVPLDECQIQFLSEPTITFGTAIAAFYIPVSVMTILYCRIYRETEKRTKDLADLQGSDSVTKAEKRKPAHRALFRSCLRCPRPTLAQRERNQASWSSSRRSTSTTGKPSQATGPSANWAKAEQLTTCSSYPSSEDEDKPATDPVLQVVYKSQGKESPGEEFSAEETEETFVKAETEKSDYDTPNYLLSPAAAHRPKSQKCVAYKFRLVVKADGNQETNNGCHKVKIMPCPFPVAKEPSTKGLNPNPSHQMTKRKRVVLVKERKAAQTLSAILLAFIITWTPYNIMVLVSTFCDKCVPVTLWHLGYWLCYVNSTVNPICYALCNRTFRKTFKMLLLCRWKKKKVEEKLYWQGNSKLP

5-HT1E = target: T3, 5-HT1E (Homo sapiens, UniProt P28566); experiment: NIMH PDSP radioligand binding, 5-HT1E; conditions: radioligand [3H]5-HT, n=4
T3 construct: purchased NIMH Psychoactive Drug Screening Program (PDSP)
T3 sequence (P28566 whole entry): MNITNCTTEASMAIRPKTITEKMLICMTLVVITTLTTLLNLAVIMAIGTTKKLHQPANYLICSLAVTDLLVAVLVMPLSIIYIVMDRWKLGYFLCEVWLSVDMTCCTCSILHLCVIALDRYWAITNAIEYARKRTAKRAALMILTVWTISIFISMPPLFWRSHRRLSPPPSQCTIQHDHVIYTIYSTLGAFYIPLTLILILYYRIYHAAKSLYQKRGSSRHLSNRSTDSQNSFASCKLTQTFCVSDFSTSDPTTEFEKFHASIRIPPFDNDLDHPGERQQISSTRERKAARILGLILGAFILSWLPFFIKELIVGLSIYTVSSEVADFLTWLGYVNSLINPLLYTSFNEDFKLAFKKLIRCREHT

T1 sequence (P41595 whole entry, species assumed): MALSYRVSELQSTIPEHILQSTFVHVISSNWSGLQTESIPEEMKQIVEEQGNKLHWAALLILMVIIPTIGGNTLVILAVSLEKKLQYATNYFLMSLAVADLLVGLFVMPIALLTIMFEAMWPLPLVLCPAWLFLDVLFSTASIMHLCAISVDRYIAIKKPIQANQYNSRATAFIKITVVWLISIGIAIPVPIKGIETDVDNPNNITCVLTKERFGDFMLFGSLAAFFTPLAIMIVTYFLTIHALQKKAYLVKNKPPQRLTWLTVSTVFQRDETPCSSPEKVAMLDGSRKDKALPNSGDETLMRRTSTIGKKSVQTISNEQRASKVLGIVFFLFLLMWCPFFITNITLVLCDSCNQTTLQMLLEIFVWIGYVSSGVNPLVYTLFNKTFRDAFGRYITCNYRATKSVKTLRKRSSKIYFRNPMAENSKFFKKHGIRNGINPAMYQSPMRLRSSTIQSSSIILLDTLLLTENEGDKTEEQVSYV

Cc1ccsc1C(=CCCN(C)[C@H]1CCCC[C@H]1C(=O)O)c1sccc1C [SBV2-114, (1R,2S)-2-((4,4-bis(3-methylthiophen-2-yl)but-3-en-yl)(methyl)amino)cyclohexanecarboxylic acid]
inhibition at 10 µM (5-HT2B; 10 μM, n=4): 96.8% | Ki (5-HT2B; full curve): 420 nM | inhibition at 10 µM (M5): 23.5% | inhibition at 10 µM (5-HT1E): -12.9%
